Experimental data from patent US8742158B2, “Protease inhibitors” (TaiMed Biologics, Inc., priority 2006, dated 2014).
Where “and” joins values, the source holds several entries; their conditions need not be identical. Equal entries are not always repeated. Where two headings read alike, the source gives them in different places.

Experiments:
HIV-1 Protease = HIV-1 Protease (Human immunodeficiency virus type 1 group M subtype B (isolate HXB2) (HIV-1), UniProt P04585); test: Enzymatic (FRET fluorometric) assay for determining the inhibition constant (Ki) of compounds targeting the HIV protease; type: biochemical; conditions: for IC50: read-out: IC50 ENZYME HIV-1 Protease
Source text: Enzymatic Assay for Determining the Inhibition Constant (Ki) of Synthetic Compounds Targeting the HIV Protease
This is a fluorometric assay based on the cleavage by protease of a substrate carrying a donor group (EDANS) and an acceptor group (DABCYL) on each side of the cleavage site, interacting together through fluorescence resonance energy transfer (FRET) as described by Matayoshi et al. (Science 247:[…], 1990).
After calculation of Vo and Vi, the inhibition constant (Ki) of the compound is determined using the equation of Henderson:
where Vo=the enzyme's initial velocity
Vi=the enzyme velocity in the presence of the inhibitory compound,
[I]=inhibitor concentration, [S]=substrate concentration,
Km=Michaelis-Menten constant and Kiapp=apparent Ki
Graphs are traced and the Ki determined using GraphPad Prism software v. 3.0.

HIV-1 viral strain NL4-3 = test: Anti-viral assay in vitro (MTT, infected MT-4 cells, six days); type: cell-based; conditions: Human immunodeficiency virus 1, NL43, MT4, 144 h, read-out: ANTI-HIV-EC50 VIRAL STRAIN NL4-3
Method: Anti-Viral and Cytotoxicity Assays In Vitro
• To evaluate the EC50 of our compounds, various drug concentrations are incubated with the infected cell for six days and then the metabolic activity of the cells is monitored by the MTT assay. (See A. J. Japour et al., Antimicrobial Agents and Chemotherapy, 37, 1095-1101, 1993 and R. Pauwels et al. Journal of Virological Methods, 20, 309-321, 1988) • We use the laboratory viral strain NL4.3 as wild type virus and the cell line used is MT-4 which is a T-cell line highly sensitive to HIV-1. We also use some WT clinical strains. To address the resistance issue we assay the inhibitors with NL4.3 mutants which are designed to be resistant to specific commercially available inhibitors. • The same MTT assay is used to evaluate the CCIC50 (cell culture of IC50) of our compounds except that the virus is omitted.

[1] = calculated Ki, read-out: KI-CALC ENZYME HIV-1 Protease
[2] = KIGRAPHIC ENZYME HIV-1 Protease, Ki determined graphically, read-out: […] ENZYME HIV-1 Protease

CC(C)CN([C@@H](CCCCNC(=O)[C@H](Cc1ccccc1Br)NC(=O)c1ccncc1)COP(=O)(O)O)S(=O)(=O)c1ccc(N)cc1 [EX 3, (2S,2S) phosphoric acid mono-(2-[(4-aminobenzenesulfonyl)-isobutyl-amino]-6-{3-(2-bromo-phenyl)-2-[(pyridine-4-carbonyl)-amino]-propionylamino}-hexyl)ester]
Ki (HIV-1 Protease; [1]): > 300 nM

COC(=O)N[C@@H](Cc1ccccc1F)C(=O)NCCCC[C@@H](COP(=O)(O)O)N(CC(C)C)S(=O)(=O)c1ccc(N)cc1 [EX 4, (1S,5S)-[1-{5-[(4-amino-benzenesulfonyl)-isobutyl-amino]-6-phosphonooxy-hexylcarbamoyl}-2-(2-fluoro-phenyl)-ethyl]-carbamic acid methyl ester]
Ki (HIV-1 Protease; [1]): > 300 nM

COC(=O)N[C@@H](Cc1ccccc1Cl)C(=O)NCCCC[C@@H](COP(=O)(O)O)N(CC(C)C)S(=O)(=O)c1ccc(N)cc1 [EX 5, (1S,5S) [1-{5-[(4-amino-benzenesulfonyl)-isobutyl-amino]-6-phosphonooxy-hexylcarbamoyl}-2-(2-chloro-phenyl)-ethyl]-carbamic acid methyl ester]
Ki (HIV-1 Protease; [1]): 91 nM

COC(=O)N[C@@H](Cc1ccc(Br)cc1)C(=O)NCCCC[C@@H](COP(=O)(O)O)N(CC(C)C)S(=O)(=O)c1ccc(N)cc1 [EX 6, (1S,5S) [1-{5-[(4-amino-benzenesulfonyl)-isobutyl-amino]-6-phosphonooxy-hexylcarbamoyl}-2-(4-bromo-phenyl)-ethyl]-carbamic acid methyl ester]
Ki (HIV-1 Protease; [1]): > 300 nM

COC(=O)N[C@@H](Cc1ccccc1F)C(=O)NCCCC[C@H](CO)N(CC(C)C)S(=O)(=O)c1ccc2c(c1)CCO2 [EX 13]
Ki (HIV-1 Protease; [1]): 9.2 nM | EC50 (HIV-1 viral strain NL4-3): 2140 nM

COC(=O)N[C@@H](Cc1ccccc1F)C(=O)NCCCC[C@H](CO)N(CC(C)C)S(=O)(=O)c1ccc2c(c1)OCCN2C [EX 14]
Ki (HIV-1 Protease; [1]): 75.7 nM | EC50 (HIV-1 viral strain NL4-3): 1830 nM

CC(C)CN([C@H](CO)CCCCNC(=O)[C@H](Cc1ccccc1Br)NC(=O)N1CCOCC1)S(=O)(=O)c1ccc2c(c1)CCO2 [EX 17]
Ki (HIV-1 Protease; [2]): 1 nM and 1.03 nM | Ki (HIV-1 Protease; [1]): < 3.8 nM | IC50 (HIV-1 Protease): 0.599 nM | EC50 (HIV-1 viral strain NL4-3): 665 nM

Cc1c(O)cccc1C(=O)N[C@@H](Cc1ccccc1Br)C(=O)NCCCC[C@@H](CO)N(CC(C)C)S(=O)(=O)c1ccc(N)cc1 [EX 18]
Ki (HIV-1 Protease; [2]): 0.26 nM | IC50 (HIV-1 Protease): 0.6 nM | EC50 (HIV-1 viral strain NL4-3): 136 nM

CC(C)CN([C@H](CO)CCCCNC(=O)[C@H](Cc1ccccc1Br)NC(=O)c1cccc(O)n1)S(=O)(=O)c1ccc(N)cc1 [EX 19]
Ki (HIV-1 Protease; [2]): 0.27 nM | IC50 (HIV-1 Protease): 0.29 nM | EC50 (HIV-1 viral strain NL4-3): 99 nM

Cc1ccccc1C[C@H](NC(=O)c1cccnc1)C(=O)NCCCC[C@@H](CO)N(CC(C)C)S(=O)(=O)c1ccc(N)cc1 [EX 20]
Ki (HIV-1 Protease; [1]): < 3.8 nM | IC50 (HIV-1 Protease): 1.42 nM | EC50 (HIV-1 viral strain NL4-3): 148 nM

Cc1ccc(C(=O)N[C@@H](Cc2ccccc2C)C(=O)NCCCC[C@@H](CO)N(CC(C)C)S(=O)(=O)c2ccc(N)cc2)cn1 [EX 21]
Ki (HIV-1 Protease; [1]): < 3.8 nM | IC50 (HIV-1 Protease): 1.29 nM | EC50 (HIV-1 viral strain NL4-3): 198 nM

Cc1ccccc1C[C@H](NC(=O)c1ccncc1)C(=O)NCCCC[C@@H](CO)N(CC(C)C)S(=O)(=O)c1ccc(N)cc1 [EX 22]
Ki (HIV-1 Protease; [1]): < 3.8 nM | IC50 (HIV-1 Protease): 1.35 nM | EC50 (HIV-1 viral strain NL4-3): 158 nM

Cc1ccccc1C[C@H](NC(=O)c1cccc(C)c1O)C(=O)NCCCC[C@@H](CO)N(CC(C)C)S(=O)(=O)c1ccc(N)cc1 [EX 23]
Ki (HIV-1 Protease; [1]): < 3.8 nM | IC50 (HIV-1 Protease): 4.12 nM | EC50 (HIV-1 viral strain NL4-3): > 50000 nM

COC(=O)N[C@@H](CC1CCCCC1)C(=O)NCCCC[C@@H](CO)N(CC(C)C)S(=O)(=O)c1ccc(N)cc1 [EX 24]
Ki (HIV-1 Protease; [1]): 5.3 nM | IC50 (HIV-1 Protease): 5.21 nM | EC50 (HIV-1 viral strain NL4-3): > 5000 nM

CC(C)CN([C@H](CO)CCCCNC(=O)[C@H](CC1CCCCC1)NC(=O)c1cccnc1)S(=O)(=O)c1ccc(N)cc1 [EX 25]
Ki (HIV-1 Protease; [1]): < 3.8 nM | IC50 (HIV-1 Protease): 2.88 nM | EC50 (HIV-1 viral strain NL4-3): > 5000 nM

Cc1ccc(C(=O)N[C@@H](CC2CCCCC2)C(=O)NCCCC[C@@H](CO)N(CC(C)C)S(=O)(=O)c2ccc(N)cc2)cn1 [EX 26]
Ki (HIV-1 Protease; [1]): < 3.8 nM | IC50 (HIV-1 Protease): 3.31 nM | EC50 (HIV-1 viral strain NL4-3): > 5000 nM

COC(=O)N[C@H](C(=O)NCCCC[C@H](CO)N(CC(C)C)S(=O)(=O)c1cccc2cccnc12)C(c1ccccc1)c1ccccc1 [EX 27]
Ki (HIV-1 Protease; [1]): < 3.8 nM | IC50 (HIV-1 Protease): 2.55 nM | EC50 (HIV-1 viral strain NL4-3): 369 nM

CC(C)CN([C@H](CO)CCCCNC(=O)[C@@H](NC(=O)c1cccc(O)n1)C(c1ccccc1)c1ccccc1)S(=O)(=O)c1ccc2c(c1)OCO2 [EX 28]
Ki (HIV-1 Protease; [2]): 0.47 nM

CC(C)CN([C@H](CO)CCCCNC(=O)[C@H](Cc1ccccc1Cl)NC(=O)c1ccncc1)S(=O)(=O)c1ccc(N)cc1 [EX 29]
Ki (HIV-1 Protease; [1]): < 3.8 nM | IC50 (HIV-1 Protease): 3.81 nM | EC50 (HIV-1 viral strain NL4-3): 144 nM

Cc1ncccc1C(=O)N[C@@H](Cc1ccccc1Cl)C(=O)NCCCC[C@@H](CO)N(CC(C)C)S(=O)(=O)c1ccc(N)cc1 [EX 30]
Ki (HIV-1 Protease; [1]): < 3.8 nM | IC50 (HIV-1 Protease): 2.15 nM | EC50 (HIV-1 viral strain NL4-3): 422 nM

CC(C)CN([C@H](CO)CCCCNC(=O)[C@H](CC1=C(Br)CCC=C1)NC(=O)N1CCOCC1)S(=O)(=O)c1ccc2c(c1)OCCO2 [EX 31]
Ki (HIV-1 Protease; [1]): < 3.8 nM | IC50 (HIV-1 Protease): 3.66 nM | EC50 (HIV-1 viral strain NL4-3): 980 nM

CC(C)CN([C@H](CO)CCCCNC(=O)[C@@H](NC(=O)N1CCOCC1)C(c1ccccc1)c1ccccc1)S(=O)(=O)c1ccc2c(c1)CCO2 [EX 34]
Ki (HIV-1 Protease; [2]): 0.821 nM | Ki (HIV-1 Protease; [1]): < 3.8 nM | IC50 (HIV-1 Protease): 0.963 nM | EC50 (HIV-1 viral strain NL4-3): 1000 nM

COC(=O)N[C@H](C(=O)NCCCC[C@H](CO)N(CC(C)C)S(=O)(=O)c1ccc2c(c1)N(C)CCO2)C(c1ccccc1)c1ccccc1 [EX 35]
Ki (HIV-1 Protease; [1]): < 3.8 nM | IC50 (HIV-1 Protease): 3.01 nM | EC50 (HIV-1 viral strain NL4-3): > 50000 nM

Cc1cccnc1C(=O)N[C@@H](Cc1ccccc1Br)C(=O)NCCCC[C@@H](CO)N(CC(C)C)S(=O)(=O)c1ccc(N)cc1 [EX 36]
Ki (HIV-1 Protease; [2]): 0.267 nM | Ki (HIV-1 Protease; [1]): < 3.8 nM | IC50 (HIV-1 Protease): 0.503 nM | EC50 (HIV-1 viral strain NL4-3): 204 nM

Cc1nn(C)c(Cl)c1S(=O)(=O)N[C@@H](Cc1ccc2ccccc2c1)C(=O)NCCCC[C@@H](CO)N(CC(C)C)S(=O)(=O)c1ccc(N)cc1 [EX 51]
Ki (HIV-1 Protease; [1]): 26.2 nM

CC(C)CN([C@H](CO)CCCCNC(=O)[C@H](Cc1ccc2ccccc2c1)NS(=O)(=O)c1ccc(C#N)cc1)S(=O)(=O)c1ccc(N)cc1 [EX 53]
Ki (HIV-1 Protease; [1]): 37.4 nM

CC(C)CN([C@H](CO)CCCCNC(=O)[C@H](Cc1ccc2ccccc2c1)NS(=O)(=O)c1cn(C)cn1)S(=O)(=O)c1ccc(N)cc1 [EX 54]
Ki (HIV-1 Protease; [1]): 11.4 nM

COC(=O)N[C@@H](Cc1ccccc1Br)C(=O)NCCCC[C@@H](COP(=O)(O)O)N(CC(C)C)S(=O)(=O)c1ccc(N)cc1 [EX. 1, (1S,5S)-[1-{5-[(4-amino-benzenesulfonyl)-isobutyl-amino]-6-phosphonooxy-hexylcarbamoyl}-2-(2-bromo-phenyl)-ethyl]-carbamic acid methyl ester]
Ki (HIV-1 Protease; [1]): > 300 nM

Cc1ncccc1C(=O)N[C@@H](Cc1ccccc1Br)C(=O)NCCCC[C@@H](COP(=O)(O)O)N(CC(C)C)S(=O)(=O)c1ccc(N)cc1 [EX. 2, (2S,2S) phosphoric acid mono-(2-[(4-aminobenzenesulfonyl)-isobutyl-amino]-6-{3-(2-bromo-phenyl)-2-[(2-methyl-pyridine-3-carbonyl)-amino]-propionylamino}-hexyl)ester]
Ki (HIV-1 Protease; [1]): > 300 nM

CC(=O)N[C@H](C(=O)NCCCCC(C(N)=O)N(CC(C)C)S(=O)(=O)c1ccc(N)cc1)C(c1ccccc1)c1ccccc1 (some centres unmarked) [EX. 8]
EC50 (HIV-1 viral strain NL4-3): 238 nM

CC(=O)N[C@H](C(=O)NCCCC[C@@H](C(N)=O)N(CC(C)C)S(=O)(=O)c1ccc(N)cc1)C(c1ccccc1)c1ccccc1 [EX. 8]
Ki (HIV-1 Protease; [1]): < 3.8 nM | IC50 (HIV-1 Protease): 1.07 nM
